These compounds were tested against T1, Pancreatic alpha-amylase (Homo sapiens, UniProt P04746) (assay: Kinetic Studies). Settings: 30 °C.
T1 sequence (P04746 whole entry): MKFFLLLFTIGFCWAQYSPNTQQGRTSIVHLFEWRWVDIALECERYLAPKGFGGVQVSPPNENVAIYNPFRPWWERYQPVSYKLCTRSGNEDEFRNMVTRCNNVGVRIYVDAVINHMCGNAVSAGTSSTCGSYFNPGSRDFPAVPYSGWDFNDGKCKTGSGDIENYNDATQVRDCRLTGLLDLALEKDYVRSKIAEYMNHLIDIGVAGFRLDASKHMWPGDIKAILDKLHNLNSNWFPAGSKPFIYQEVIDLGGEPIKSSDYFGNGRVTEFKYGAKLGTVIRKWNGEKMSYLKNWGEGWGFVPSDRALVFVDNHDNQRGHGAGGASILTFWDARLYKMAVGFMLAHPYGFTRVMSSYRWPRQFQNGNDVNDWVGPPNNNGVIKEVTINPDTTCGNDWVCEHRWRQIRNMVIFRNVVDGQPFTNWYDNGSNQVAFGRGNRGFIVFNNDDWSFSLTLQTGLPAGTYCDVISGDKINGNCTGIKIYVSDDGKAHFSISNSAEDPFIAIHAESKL
Procedure: 2-Chloro-4-nitrophenyl α-d-maltotrioside (CNP-G3) was used as the substrate in a similar range of concentrations. Initial reaction rates for the release of chloronitrophenolate were measured and the further progress of substrate cleavage monitored continuously. Reactions were performed on a Varian Cary 4000 UV/Vis spectrophotometer at 400 nm and 30 °C.

| Ki | SMILES |
| --- | --- |
| 730 nM | C[C@@H]1O[C@@H](O[C@@H]2CO[C@@H](Oc3c(O)cc(-c4oc5cc(O)cc(O)c5c(=O)c4O[C@@H]4O[C@@H](C)[C@H](O)[C@@H](O)[C@H]4O[C@@H]4O[C@H](CO)[C@@H](O)[C@H](O)[C@H]4O[C@@H]4O[C@H](CO)[C@@H](O)[C@H](O)[C@H]4O)cc3O)[C@H](O)[C@H]2O)[C@H](O)[C@H](O)[C@H]1O [MbA-C (6)] |
| 2240 nM | C[C@@H]1O[C@@H](O[C@@H]2CO[C@@H](Oc3c(O)cc(-c4oc5cc(O)cc(O)c5c(=O)c4O[C@@H]4O[C@@H](C)[C@H](O)[C@@H](O)[C@H]4O[C@@H]4O[C@H](CO)[C@@H](O)[C@H](O)[C@H]4O)cc3O)[C@H](O)[C@H]2O)[C@H](O)[C@H](O)[C@H]1O [MbA-CG (7)] |
| 128000 nM | C[C@@H]1O[C@@H](Oc2c(-c3cc(O)c(O[C@@H]4OC[C@@H](O)[C@H](O)[C@H]4O)c(O)c3)oc3cc(O)cc(O)c3c2=O)[C@H](O[C@@H]2O[C@H](CO)[C@@H](O)[C@H](O)[C@H]2O)[C@H](O)[C@H]1O [MbA-CGR (9)] |
| 46800 nM | C[C@@H]1O[C@@H](Oc2c(-c3cc(O)c(O[C@@H]4OC[C@@H](O)[C@H](O)[C@H]4O)c(O)c3)oc3cc(O)cc(O)c3c2=O)[C@H](O[C@@H]2O[C@H](CO)[C@@H](O)[C@H](O)[C@H]2O[C@@H]2O[C@H](CO)[C@@H](O)[C@H](O)[C@H]2O)[C@H](O)[C@H]1O [MbA-CR (8)] |
| 9.1 nM | C[C@@H]1O[C@@H](O[C@@H]2CO[C@@H](Oc3c(O)cc(-c4oc5cc(O)cc(O)c5c(=O)c4O[C@@H]4O[C@@H](C)[C@H](O)[C@@H](O)[C@H]4O[C@@H]4O[C@H](COC(=O)/C=C/c5ccc(O)c(O)c5)[C@@H](O)[C@H](O)[C@H]4O)cc3O)[C@H](O)[C@H]2O)[C@H](O)[C@H](O)[C@H]1O [MbA-G (1)] |
| 79.3 nM | C[C@@H]1O[C@@H](Oc2c(-c3cc(O)c(O[C@@H]4OC[C@@H](O)[C@H](O)[C@H]4O)c(O)c3)oc3cc(O)cc(O)c3c2=O)[C@H](O[C@@H]2O[C@H](COC(=O)/C=C/c3ccc(O)c(O)c3)[C@@H](O)[C@H](O)[C@H]2O)[C@H](O)[C@H]1O [MbA-GR (4)] |
| 42.4 nM | C[C@@H]1O[C@@H](Oc2c(-c3cc(O)c(O)c(O)c3)oc3cc(O)cc(O)c3c2=O)[C@H](O[C@@H]2O[C@H](COC(=O)/C=C/c3ccc(O)c(O)c3)[C@@H](O)[C@H](O)[C@H]2O[C@@H]2O[C@H](CO)[C@@H](O)[C@H](O)[C@H]2O)[C@H](O)[C@H]1O [MbA-RX (3)] |
| 13900 nM | O=C(/C=C/c1ccc(O)c(O)c1)NCc1cn(CCCCCCOc2c(-c3ccc(O)c(O)c3)oc3cc(O)cc(O)c3c2=O)nn1 [mini-MbA analog inhibitor 10] |
| 93.3 nM | C[C@@H]1O[C@@H](Oc2c(-c3cc(O)c(O)c(O)c3)oc3cc(O)cc(O)c3c2=O)[C@H](O[C@@H]2O[C@H](COC(=O)/C=C/c3ccc(O)c(O)c3)[C@@H](O)[C@H](O)[C@H]2O)[C@H](O)[C@H]1O [mini-MbA] |
